# Test results published in ChEMBL document CHEMBL1201862, “PubChem BioAssay data set” (2004).
# Active and inactive are the calls of the source.
# Tests used:
# [1] = Trypanosoma cruzi growth suppression in host cells – NIH3T3 host cells, beta-gal luminescence, confirmation (AID 2044); type: functional, cell-based;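 note: intracellular parasites grown in NIH/3T3 mouse fibroblasts as host cells; luminescent beta-galactosidase reporter signal from transgenic T. cruzi replicating inside host cells; inhibitors lower the luminescence signal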
# [2] = NIH3T3 cell viability loss – ATP luminescence, mouse fibroblasts, counter-screen, dose response (AID 2010); type: functional, cell-based;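 note: cells exposed to compound for about 90 hours before reading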
# [3] = target: T1, Protein Tat (Human immunodeficiency virus type 1 group M subtype B (isolate HXB2)(HIV-1), UniProt P04608); type: functional;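 note: tat binding to TAR RNA read out by fluorescence polarization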
# T1 sequence (P04608 whole entry): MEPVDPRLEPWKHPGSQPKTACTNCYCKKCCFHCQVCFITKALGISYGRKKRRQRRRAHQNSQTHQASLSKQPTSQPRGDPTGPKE
# [4] = viability loss in Vero cells – cytotoxicity control for Vif-APOBEC3G degradation inhibitor project, dose response (AID 1117358); type: functional; details: Vero
# [5] = growth inhibition of yeast DHODH-expressing 3D7 parasites – SYBR Green, dry powder samples, dose response (AID 1159570); type: functional, cell-based;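 note: parasite growth measured after 72 hours of compound exposure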
# [6] = toxicity to human HepG2 hepatoma cells – cell-based, plate reader, dry powder samples, cytotoxicity control, dose response (AID 1159569); type: functional;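 note: inhibitor potency with signal falling toward the positive control level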
# [7] = Dd2 parasite growth inhibition in erythrocytes – SYBR Green, dry powder samples, set 9, dose response (AID 1159568); type: functional, cell-based
# [8] = P. falciparum Dd2 growth inhibitors, dose response, SYBR Green, cherry-picked samples (AID 1159567); type: functional, cell-based
# [9] = Dd2 malaria parasite growth inhibition potency – SYBR Green, dry powder samples, dose response (AID 1159566); type: functional, cell-based;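 note: potency for growth inhibition with lower SYBR green DNA signal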
# [10] = growth inhibition of PfATP4-mutant resistant parasites – NITD609-resistant line, SYBR Green, dry powder, dose response (AID 1159571); type: functional, cell-based;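 note: parasites synchronized at ring stage by sorbitol before testing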
# [11] = target: T2, Aminopeptidase N (Plasmodium falciparum FcB1/Columbia, UniProt O96935); assay: malaria alanyl aminopeptidase activity blockers – biochemical, fluorogenic H-Leu-NHMec substrate, 1536-well (AID 1445); set-up: species or system Plasmodium falciparum 3D7, 3D7
# T2 sequence (O96935 whole entry): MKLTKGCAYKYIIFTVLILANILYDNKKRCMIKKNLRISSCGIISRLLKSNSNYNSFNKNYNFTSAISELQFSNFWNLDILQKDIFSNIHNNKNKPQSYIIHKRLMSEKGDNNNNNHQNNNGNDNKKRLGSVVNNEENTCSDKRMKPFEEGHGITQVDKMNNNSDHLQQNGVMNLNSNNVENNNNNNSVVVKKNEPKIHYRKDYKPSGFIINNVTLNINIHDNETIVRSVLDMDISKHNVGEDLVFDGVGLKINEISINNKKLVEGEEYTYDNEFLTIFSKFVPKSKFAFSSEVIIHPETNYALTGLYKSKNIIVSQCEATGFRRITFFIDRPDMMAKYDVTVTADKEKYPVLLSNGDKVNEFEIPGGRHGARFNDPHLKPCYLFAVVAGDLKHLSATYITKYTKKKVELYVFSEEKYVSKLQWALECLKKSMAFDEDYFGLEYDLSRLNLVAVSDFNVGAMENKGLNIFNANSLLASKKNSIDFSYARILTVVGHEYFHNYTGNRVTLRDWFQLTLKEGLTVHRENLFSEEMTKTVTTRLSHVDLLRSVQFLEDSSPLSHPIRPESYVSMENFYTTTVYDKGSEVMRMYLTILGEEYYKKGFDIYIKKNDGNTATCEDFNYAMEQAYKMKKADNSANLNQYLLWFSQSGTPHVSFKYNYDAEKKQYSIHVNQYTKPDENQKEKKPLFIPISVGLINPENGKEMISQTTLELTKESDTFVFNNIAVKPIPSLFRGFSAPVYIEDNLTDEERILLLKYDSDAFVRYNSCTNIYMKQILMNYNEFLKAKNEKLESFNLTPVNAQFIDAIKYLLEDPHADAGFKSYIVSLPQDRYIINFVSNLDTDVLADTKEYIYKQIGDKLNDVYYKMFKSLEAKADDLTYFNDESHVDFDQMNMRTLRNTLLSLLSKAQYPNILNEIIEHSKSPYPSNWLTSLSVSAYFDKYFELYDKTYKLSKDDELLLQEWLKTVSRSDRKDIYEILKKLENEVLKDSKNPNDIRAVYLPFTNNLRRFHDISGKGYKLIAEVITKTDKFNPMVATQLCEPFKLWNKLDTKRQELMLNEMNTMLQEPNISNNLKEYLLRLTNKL
# [12] = target: T3, RNA-binding protein pos-1 (Caenorhabditis elegans, UniProt G5EF15); assay: disruptors of C. elegans POS-1 RNA interaction – biochemical, fluorescence polarization, dose response (AID 1964);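 note: purified POS-1 fused to maltose binding protein made in E. coli; potency of compounds blocking POS-1 binding to fluorescent RNA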
# T3 sequence (G5EF15 whole entry): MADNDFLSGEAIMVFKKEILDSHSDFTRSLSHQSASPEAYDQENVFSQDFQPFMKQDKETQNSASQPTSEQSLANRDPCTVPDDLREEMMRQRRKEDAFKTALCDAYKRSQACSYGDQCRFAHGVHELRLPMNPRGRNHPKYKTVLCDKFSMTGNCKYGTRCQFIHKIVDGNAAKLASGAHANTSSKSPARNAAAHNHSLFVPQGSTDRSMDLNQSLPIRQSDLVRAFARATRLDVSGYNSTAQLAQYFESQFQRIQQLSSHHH
# [13] = target: T4, Zinc finger protein mex-5 (Caenorhabditis elegans, UniProt Q9XUB2); assay: potency of MEX-5 RNA-binding blockers – biochemical, C. elegans, fluorescence polarization, dose response (AID 1960)
# T4 sequence (Q9XUB2 whole entry): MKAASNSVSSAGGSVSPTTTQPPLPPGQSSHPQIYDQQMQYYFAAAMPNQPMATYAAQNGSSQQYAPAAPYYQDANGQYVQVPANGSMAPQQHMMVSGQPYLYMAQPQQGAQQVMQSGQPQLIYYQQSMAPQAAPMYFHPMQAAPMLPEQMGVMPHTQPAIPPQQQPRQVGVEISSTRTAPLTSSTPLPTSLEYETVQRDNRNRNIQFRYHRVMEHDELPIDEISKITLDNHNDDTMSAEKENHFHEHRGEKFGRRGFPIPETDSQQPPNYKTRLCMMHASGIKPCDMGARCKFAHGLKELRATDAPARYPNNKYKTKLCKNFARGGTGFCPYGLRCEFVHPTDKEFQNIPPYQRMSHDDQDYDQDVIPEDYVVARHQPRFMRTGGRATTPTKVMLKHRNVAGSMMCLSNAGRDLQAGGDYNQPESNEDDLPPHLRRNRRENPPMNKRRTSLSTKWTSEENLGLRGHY
# [14] = target: T5, Estrogen receptor (Homo sapiens, UniProt P03372);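 note: potency for inhibiting coactivator peptide recruitment to the receptor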
# T5 sequence (P03372 whole entry): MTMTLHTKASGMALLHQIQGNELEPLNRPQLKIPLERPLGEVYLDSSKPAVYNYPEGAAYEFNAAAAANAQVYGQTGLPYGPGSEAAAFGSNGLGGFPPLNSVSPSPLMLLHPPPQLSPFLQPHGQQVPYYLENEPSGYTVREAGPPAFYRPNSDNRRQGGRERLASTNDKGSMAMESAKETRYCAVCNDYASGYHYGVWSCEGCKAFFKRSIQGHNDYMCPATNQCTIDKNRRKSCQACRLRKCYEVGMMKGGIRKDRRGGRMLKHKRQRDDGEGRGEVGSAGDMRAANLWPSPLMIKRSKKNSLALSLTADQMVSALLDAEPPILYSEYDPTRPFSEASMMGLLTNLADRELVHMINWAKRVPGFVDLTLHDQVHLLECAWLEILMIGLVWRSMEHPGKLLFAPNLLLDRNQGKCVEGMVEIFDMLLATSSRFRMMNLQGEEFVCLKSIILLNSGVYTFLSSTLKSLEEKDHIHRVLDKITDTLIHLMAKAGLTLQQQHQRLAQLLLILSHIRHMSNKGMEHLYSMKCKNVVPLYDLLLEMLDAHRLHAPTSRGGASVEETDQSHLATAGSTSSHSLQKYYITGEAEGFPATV
# [15] = target: Estrogen receptor beta (Homo sapiens, UniProt Q92731); assay: blockers of SRC-3 recruitment to ERβ – biochemical, ELISA, streptavidin-HRP readout, orthogonal assay, confirmation (AID 1060)
# Sequence of Estrogen receptor beta (Q92731 whole entry): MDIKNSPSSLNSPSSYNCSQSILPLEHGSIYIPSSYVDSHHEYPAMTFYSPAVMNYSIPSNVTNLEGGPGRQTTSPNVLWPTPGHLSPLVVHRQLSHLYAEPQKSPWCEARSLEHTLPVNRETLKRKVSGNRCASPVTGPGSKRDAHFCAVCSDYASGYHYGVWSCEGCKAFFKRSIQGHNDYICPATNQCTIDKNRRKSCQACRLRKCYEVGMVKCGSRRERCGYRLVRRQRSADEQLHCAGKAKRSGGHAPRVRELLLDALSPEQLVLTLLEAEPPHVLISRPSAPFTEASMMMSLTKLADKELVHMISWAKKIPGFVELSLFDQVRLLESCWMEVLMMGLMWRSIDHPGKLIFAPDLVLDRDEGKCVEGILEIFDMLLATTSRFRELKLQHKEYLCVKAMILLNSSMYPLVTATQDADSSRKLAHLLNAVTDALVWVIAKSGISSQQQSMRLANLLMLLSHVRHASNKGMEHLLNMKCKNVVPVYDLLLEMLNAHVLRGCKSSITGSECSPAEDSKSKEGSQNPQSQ
# [16] = target: 14-3-3 protein gamma (Homo sapiens, UniProt P61981); assay: modulators of 14-3-3 gamma client binding – dose response (AID 711); type: functional
# Sequence of 14-3-3 protein gamma (P61981 whole entry): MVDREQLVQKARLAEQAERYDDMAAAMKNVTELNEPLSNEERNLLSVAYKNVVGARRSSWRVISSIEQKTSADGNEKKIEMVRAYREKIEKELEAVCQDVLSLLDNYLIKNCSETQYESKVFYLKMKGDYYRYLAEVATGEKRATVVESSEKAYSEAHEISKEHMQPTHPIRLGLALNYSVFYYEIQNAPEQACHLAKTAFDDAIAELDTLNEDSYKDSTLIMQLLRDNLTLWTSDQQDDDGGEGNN
# [17] = target: T6, Polyadenylate-binding protein 1 (Homo sapiens, UniProt P11940); assay: MLLE binding blockers, Cy5 peptide tracer – biochemical, fluorescence polarization, Cy5-PAM2 peptide, secondary, miRNA deadenylation inhibitor project, dose response (AID 602260); type: functional; details: read-out: IC50_Mean
# T6 sequence (P11940 whole entry, the tested form may be a part): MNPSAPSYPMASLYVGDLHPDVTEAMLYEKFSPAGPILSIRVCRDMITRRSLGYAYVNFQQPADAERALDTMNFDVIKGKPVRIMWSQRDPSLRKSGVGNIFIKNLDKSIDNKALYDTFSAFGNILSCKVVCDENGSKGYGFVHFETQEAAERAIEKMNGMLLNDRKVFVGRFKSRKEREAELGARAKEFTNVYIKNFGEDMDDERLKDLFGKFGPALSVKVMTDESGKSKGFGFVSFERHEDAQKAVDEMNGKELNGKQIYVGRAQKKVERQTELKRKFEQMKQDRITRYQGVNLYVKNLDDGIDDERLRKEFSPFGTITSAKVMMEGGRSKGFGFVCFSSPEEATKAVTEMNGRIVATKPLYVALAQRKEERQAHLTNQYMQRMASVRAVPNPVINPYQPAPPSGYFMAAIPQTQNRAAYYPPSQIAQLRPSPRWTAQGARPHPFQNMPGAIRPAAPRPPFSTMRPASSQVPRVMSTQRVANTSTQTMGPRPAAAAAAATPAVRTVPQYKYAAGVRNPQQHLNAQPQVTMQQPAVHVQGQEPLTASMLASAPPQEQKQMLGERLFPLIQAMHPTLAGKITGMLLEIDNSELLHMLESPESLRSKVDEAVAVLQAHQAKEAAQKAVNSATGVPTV
# [18] = target: T6, Polyadenylate-binding protein 1; assay: MLLE domain peptide-binding blockers, IC50 – biochemical, fluorescence polarization, FITC-PAM2 peptide, dose response (AID 602259); type: functional; details: read-out: IC50_Mean
# [19] = target: Heat shock protein HSP 90-alpha (Homo sapiens, UniProt P07900); assay: Luminescence-based dose response biochemical high throughput screening assay for inhibitors of the Heat Shock Protein 90 (HSP90). [Related pubchem assays: 1831 (Summary AID.), 1846 (Confirmation screen.), 1789 (Primary screen.)]
# [20] = target: Dual specificity tyrosine-phosphorylation-regulated kinase 1A (Rattus norvegicus, UniProt Q63470); type: biochemical, Homo sapiens
# [21] = target: 5-hydroxytryptamine receptor 1A (Homo sapiens, UniProt P08908); type: functional
# Sequence of 5-hydroxytryptamine receptor 1A (P08908 whole entry): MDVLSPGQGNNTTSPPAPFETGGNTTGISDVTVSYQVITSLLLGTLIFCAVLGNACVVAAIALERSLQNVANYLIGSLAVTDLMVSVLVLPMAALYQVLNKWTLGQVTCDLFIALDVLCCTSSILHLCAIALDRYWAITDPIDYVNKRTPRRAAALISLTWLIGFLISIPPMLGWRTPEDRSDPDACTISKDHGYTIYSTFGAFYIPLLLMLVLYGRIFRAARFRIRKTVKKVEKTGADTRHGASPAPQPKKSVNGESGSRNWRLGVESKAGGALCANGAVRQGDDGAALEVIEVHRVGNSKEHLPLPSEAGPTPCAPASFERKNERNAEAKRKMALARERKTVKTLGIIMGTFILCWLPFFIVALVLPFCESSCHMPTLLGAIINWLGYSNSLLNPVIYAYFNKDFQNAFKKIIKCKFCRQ
# [22] = target: Cytochrome P450 2C19 (Homo sapiens, UniProt P33261); assay: Cytochrome panel assay with activity outcomes. Panel member name: p450-cyp2c19 Compounds with AC50 equal or less than 10 uM are considered active; type: functional; details: read-out: AC50
# Sequence of Cytochrome P450 2C19 (P33261 whole entry): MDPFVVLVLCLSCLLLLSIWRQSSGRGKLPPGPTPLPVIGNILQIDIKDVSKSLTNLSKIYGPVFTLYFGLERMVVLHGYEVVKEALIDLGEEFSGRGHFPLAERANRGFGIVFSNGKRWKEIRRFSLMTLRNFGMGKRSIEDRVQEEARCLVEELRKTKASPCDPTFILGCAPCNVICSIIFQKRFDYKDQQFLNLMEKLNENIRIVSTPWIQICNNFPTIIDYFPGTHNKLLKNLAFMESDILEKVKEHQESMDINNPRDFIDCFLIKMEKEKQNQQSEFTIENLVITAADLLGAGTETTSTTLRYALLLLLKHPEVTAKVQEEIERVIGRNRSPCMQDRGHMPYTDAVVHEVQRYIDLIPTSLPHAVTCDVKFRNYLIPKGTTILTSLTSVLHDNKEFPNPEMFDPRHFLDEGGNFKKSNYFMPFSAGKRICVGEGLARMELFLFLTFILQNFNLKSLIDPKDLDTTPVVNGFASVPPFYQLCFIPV
# [23] = target: Luciferin 4-monooxygenase (Photinus pyralis, UniProt P08659); assay: Counter Screen for Luciferase-based Assay Positives. [Related pubchem assays: 620, 618, 411 ]
# Sequence of Luciferin 4-monooxygenase (P08659 whole entry): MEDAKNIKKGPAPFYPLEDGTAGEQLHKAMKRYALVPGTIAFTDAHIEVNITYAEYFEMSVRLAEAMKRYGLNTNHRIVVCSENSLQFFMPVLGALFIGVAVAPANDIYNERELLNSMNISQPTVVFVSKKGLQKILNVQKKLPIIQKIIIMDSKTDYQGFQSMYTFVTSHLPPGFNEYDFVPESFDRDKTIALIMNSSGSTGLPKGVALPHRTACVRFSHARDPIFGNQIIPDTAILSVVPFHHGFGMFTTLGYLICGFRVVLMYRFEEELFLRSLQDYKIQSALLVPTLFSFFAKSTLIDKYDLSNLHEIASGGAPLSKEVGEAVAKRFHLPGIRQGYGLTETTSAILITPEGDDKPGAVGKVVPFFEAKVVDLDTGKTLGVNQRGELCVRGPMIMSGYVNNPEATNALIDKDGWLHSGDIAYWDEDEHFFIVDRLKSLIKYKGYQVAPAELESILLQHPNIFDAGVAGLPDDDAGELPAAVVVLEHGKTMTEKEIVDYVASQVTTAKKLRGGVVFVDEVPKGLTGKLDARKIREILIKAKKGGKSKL
# [24] = test system: HT-1080; assay: HT1080 cell viability loss – fluorescence readout (AID 620); type: functional, cell-based; details: Homo sapiens
# [25] = test system: HEK293; assay: EBV LMP1 TES2 canonical NF-kB signalling blockers – cell-based, HEK293, luciferase, cherry-pick, dose response (AID 588343); type: functional; details: Homo sapiens
# [26] = target: Peroxisome proliferator-activated receptor gamma/Nuclear receptor corepressor 2 (Homo sapiens, UniProt P37231+Q9Y618); assay: Counterscreen for NR2E3 inverse agonists: TR-FRET-based biochemical high throughput dose response assay to identify inverse agonists of the interaction between peroxisome proliferator-activated receptor gamma (PPARg) and nuclear receptor co-repressor 2 (NCOR2).; type: functional
# [27] = target: Photoreceptor-specific nuclear receptor (Homo sapiens, UniProt Q9Y5X4); assay: ligands suppressing NR2E3 nuclear receptor activity – biochemical, TR-FRET, dose response (AID 463256); type: functional
# Sequence of Photoreceptor-specific nuclear receptor (Q9Y5X4 whole entry): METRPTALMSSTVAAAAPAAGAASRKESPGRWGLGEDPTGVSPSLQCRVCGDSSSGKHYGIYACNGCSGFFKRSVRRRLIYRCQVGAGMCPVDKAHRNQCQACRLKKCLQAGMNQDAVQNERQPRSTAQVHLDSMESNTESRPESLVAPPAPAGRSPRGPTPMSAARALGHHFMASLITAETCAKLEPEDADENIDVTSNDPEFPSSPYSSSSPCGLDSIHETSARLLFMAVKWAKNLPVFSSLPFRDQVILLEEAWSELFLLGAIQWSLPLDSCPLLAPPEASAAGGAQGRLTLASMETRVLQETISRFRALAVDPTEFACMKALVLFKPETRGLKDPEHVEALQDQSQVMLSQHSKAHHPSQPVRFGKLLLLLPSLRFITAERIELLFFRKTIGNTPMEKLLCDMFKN
# [28] = Luminescent dose response cell-based high throughput screening assay for inhibitors of the Janus kinase 2 mutant JAK2V617F. [Related pubchem assays: 1446 (Primary screen.), 1521 (Confirmation assay.), 1486 (Counter screen.)]; type: functional
# [29] = toxicity to human hepatoma HepG2 cells – cell-based, cherry-picked samples, cytotoxicity control, dose response (AID 1159577); type: functional
# [30] = target: Bifunctional protein GlmU (Mycobacterium tuberculosis, UniProt P9WMN3); assay: Inhibitors of Mycobacterial Glucosamine-1-phosphate acetyl transferase (GlmU). Secondary screen.; set-up: species or system Mycobacterium tuberculosis H37Rv
# Sequence of Bifunctional protein GlmU (P9WMN3 whole entry): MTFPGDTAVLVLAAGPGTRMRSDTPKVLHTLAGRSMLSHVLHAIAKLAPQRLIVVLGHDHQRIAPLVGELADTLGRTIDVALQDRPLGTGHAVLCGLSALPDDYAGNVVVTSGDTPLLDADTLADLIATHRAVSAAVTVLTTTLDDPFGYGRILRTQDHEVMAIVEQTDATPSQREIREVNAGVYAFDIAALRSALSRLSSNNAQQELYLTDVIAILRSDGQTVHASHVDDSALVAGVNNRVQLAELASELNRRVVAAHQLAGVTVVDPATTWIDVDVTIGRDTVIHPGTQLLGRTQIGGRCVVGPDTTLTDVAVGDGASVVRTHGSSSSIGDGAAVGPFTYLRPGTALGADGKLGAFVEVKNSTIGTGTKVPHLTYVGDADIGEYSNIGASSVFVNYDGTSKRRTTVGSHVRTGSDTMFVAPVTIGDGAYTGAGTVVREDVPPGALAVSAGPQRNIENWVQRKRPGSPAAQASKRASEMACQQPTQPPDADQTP
compound,measurement,setting,value
Cc1noc(/C=C/c2ccco2)c1S(=O)(=O)N1CCC(C(=O)N2c3ccccc3CC2C)CC1 (stereo not given),EC50,[1],1.66 µM (active)
same,EC50,[2],> 60 µM (not active)
same,IC50,[3],> 100 µM (active)
same,CC50,[4],39.7 µM (active)
CCCC(=O)N1CCC2(CC1)CN(S(=O)(=O)c1ccc(C)cc1)[C@@H](CO)c1[nH]c3cc(OC)ccc3c12,AC50,[5],0.137 µM (active)
same,AC50,[6],77.5 µM (active)
same,AC50,[7],0.182 µM (active)
same,AC50,[8],< 0.3 µM (active)
same,AC50,[9],0.0986 µM (active)
same,AC50,[10],0.115 µM (active)
Cc1cc(=O)oc2c(CN3CCC(C)CC3)c(O)c(Cl)cc12,IC50,[11],32.7 µM (active)
same,EC50,[12],> 300 µM (not active)
same,EC50,[13],> 300 µM (not active)
same,IC50,[14],23.7 µM (active)
same,IC50,[15],5.23 µM (not active)
same,IC50,[16],45.6 µM (not active)
same,IC50,[17],> 66 µM (inactive)
same,IC50,[18],37.7 µM (inactive)
CS(=O)(=O)c1ccc(-c2cn3cc(C(=O)O)ccc3n2)cc1,IC50,[19],2.5 µM (active)
same,AC50,[20],1.96 µM (active)
CCCCN(CC)Cc1ccc(CNC(=O)Nc2ccc(OC)cc2OC)o1,EC50,[21],> 50 µM (not active)
same,AC50,[22],11.2 µM (inconclusive)
COc1cccc(C(=O)Nc2nc3ccccc3[nH]2)c1,EC50,[23],0.75 µM (active)
same,EC50,[24],> 50 µM (not active)
same,AC50,[25],3.29 µM (active)
same,CC50,[4],> 40 µM (active)
CC(=O)c1ccc(-c2ccc(C(=O)Nc3nc(C)c(C(C)=O)s3)o2)cc1,IC50,[26],9.53 µM (active)
same,IC50,[27],8.01 µM (active)
COc1ccc(-c2cc(-c3cc(C)ccc3O)[nH]n2)cc1,IC50,[28],1.83 µM (active)
Cc1cccc(-c2ccc([C@@H]3[C@@H]4CN(C(=O)CN(C)C)C[C@H]3N4)cc2)c1,AC50,[7],4.19 µM (active)
same,AC50,[8],3.46 µM (active)
same,AC50,[29],32.1 µM (active)
COc1ccc(OCc2cc(C(=O)O)c(C)o2)cc1,IC50,[30],51.7 µM (active)
C[C@@H]1CN([C@@H](C)CO)C(=O)c2cccc(NC(=O)c3nc4ccccc4s3)c2O[C@H]1CN(C)C(=O)Nc1ccc(C(F)(F)F)cc1,AC50,[5],0.274 µM (active)
same,AC50,[6],> 100 µM (inactive)
same,AC50,[8],1.06 µM (active)
same,AC50,[9],0.245 µM (active)
same,AC50,[10],0.323 µM (active)
COc1ccc(N(CC(=O)NC2CCCC2)C(=O)Cn2nnc(-c3ccc(C)cc3)n2)cc1OC,EC50,[21],> 50 µM (not active)
COc1ccccc1NC(=O)c1coc(=O)c(Br)c1,IC50,[19],0.658 µM (active)
